Source: article PMC7581365, “Structural features and development of an assay platform of the parasite target deoxyhypusine synthase of Brugia malayi and Leishmania major” (PLoS Neglected Tropical Diseases, 2020)

Key:
[1] = biological target: T1, Deoxyhypusine synthase (BmDHS) (Brugia malayi, UniProt A0A0J9XTC4); experiment: NADH fluorescence assay of DHS partial reaction with purified recombinant enzyme; assay type: biochemical
T1 construct: gene bma-dhps-1; full-length, recombinant BmDHS (residues 1–366)
T1 sequence (A0A0J9XTC4 1-366): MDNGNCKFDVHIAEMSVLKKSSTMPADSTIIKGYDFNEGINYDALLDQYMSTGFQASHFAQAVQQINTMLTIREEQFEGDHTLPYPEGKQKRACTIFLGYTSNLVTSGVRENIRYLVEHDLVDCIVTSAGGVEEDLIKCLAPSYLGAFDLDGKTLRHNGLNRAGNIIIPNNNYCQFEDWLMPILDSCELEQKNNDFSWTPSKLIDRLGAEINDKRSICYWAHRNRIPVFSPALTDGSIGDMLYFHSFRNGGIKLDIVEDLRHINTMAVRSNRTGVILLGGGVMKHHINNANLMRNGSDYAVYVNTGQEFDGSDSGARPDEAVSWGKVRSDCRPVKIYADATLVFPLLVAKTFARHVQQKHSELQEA

[2] = biological target: the molecule itself; experiment: SEC; analytical gel filtration, Superdex 200 Increase 10/300, 900 ug purified BmDHS; 20 mM HEPES pH 7.5, 300 mM NaCl, 5% glycerol, 0.5 mM TCEP; calibrated with protein standards (Kav against log mass)

Molecule	IC50 [1] [nM]	stoichiometry N [2]
N=C(N)NCCCCCCCN [GC7]	28	
Brugia malayi deoxyhypusine synthase (BmDHS), full-length recombinant protein (enzyme, additional N-terminal serine residue introduced by the cloning strategy and left over after TEV cleavage of the poly-His tag; Deoxyhypusine synthase of Brugia malayi, encoded by bma-DHPS-1, full-length enzyme, residues 1-366; Expressed from pNIC28-Bsa4; Molecular weight by LC-MS 41,083.5 Da; also called B. malayi (Bm)DHS; filarial worm DHS; source: E. coli BL21(DE3)-R3-pRARE2, purified (HisTrap …)) SMDNGNCKFDVHIAEMSVLKKSSTMPADSTIIKGYDFNEGINYDALLDQYMSTGFQASHFAQAVQQINTMLTIREEQFEGDHTLPYPEGKQKRACTIFLGYTSNLVTSGVRENIRYLVEHDLVDCIVTSAGGVEEDLIKCLAPSYLGAFDLDGKTLRHNGLNRAGNIIIPNNNYCQFEDWLMPILDSCELEQKNNDFSWTPSKLIDRLGAEINDKRSICYWAHRNRIPVFSPALTDGSIGDMLYFHSFRNGGIKLDIVEDLRHINTMAVRSNRTGVILLGGGVMKHHINNANLMRNGSDYAVYVNTGQEFDGSDSGARPDEAVSWGKVRSDCRPVKIYADATLVFPLLVAKTFARHVQQKHSELQEA		4
